According to the CATMoS acute toxicity set (Mansouri et al. 2021):
“And” between values parts separate entries of the source, which are not always exact repeats. Identical values can stand only once.

Assay: rat acute oral toxicity
Conditions: in vivo

Structure (SMILES)	LD50
ClC1=C(Cl)[C@]2(Cl)[C@@H]3[C@@H]4C[C@@H]([C@H]5O[C@@H]45)[C@@H]3[C@@]1(Cl)C2(Cl)Cl (single isomer, unassigned)	24 mg/kg
CC(COC(=O)c1ccccc1)OC(=O)c1ccccc1 (configuration not stated)	2660 mg/kg
CC=C1CC2CC1C1C3C=CC(C3)C21 (configuration not stated)	666 mg/kg
CCOP(=O)(NC(C)C)Oc1ccc(SC)c(C)c1 (configuration not stated)	2.7 mg/kg
Oc1c(Br)cc(Br)cc1Br	1490 mg/kg
C=C(C)[C@H]1Cc2c(ccc3c2O[C@@H]2COc4cc(OC)c(OC)cc4[C@@H]2C3=O)O1	25 mg/kg
O=C1CCC(=O)O1	1510 mg/kg
CCCCNC(=O)OCC#CI	1100 mg/kg
OCCN1CN(CCO)CN(CCO)C1	763 mg/kg
O=C1c2ccccc2C(=O)C1C(=O)C(c1ccccc1)c1ccc(Cl)cc1 (configuration not stated)	2.1 mg/kg
CNN	32 mg/kg
OCC1CO1 (configuration not stated)	420 mg/kg
CSSC	290 mg/kg
Clc1cc2c(c(Cl)c1Cl)Oc1c(cc(Cl)c(Cl)c1Cl)O2	0.8 mg/kg
C1CNCCN1	1980 mg/kg
CC(=O)CC(C)(C)O	2520 mg/kg
COP(=O)(OC)O/C(C)=C/C(=O)N(C)C	9 mg/kg
CC[N+](=O)[O-]	1080 mg/kg
CC(O)CC(C)(C)O (configuration not stated)	3700 mg/kg
CC(C)N(C(=O)CCl)c1ccccc1	710 mg/kg
C=CC(=O)OCC	800 mg/kg

Structure (SMILES)	LD50
Clc1cc(-c2cc(Cl)c(Cl)c(Cl)c2)cc(Cl)c1Cl	4250 mg/kg
CC(=O)OC(C)C	3000 mg/kg
CN(C)C(=O)Nc1ccc(Cl)c(Cl)c1	437 mg/kg
CCN(CC)C(=O)N1CCN(C)CC1	1380 mg/kg
Oc1ccc(O)cc1	302 mg/kg
O=Cc1ccccn1	566 mg/kg
CNC(=S)S	615 mg/kg
CC(C)C(C(=O)OC(C#N)c1cccc(Oc2ccccc2)c1)c1ccc(Cl)cc1 (configuration not stated)	135 mg/kg
CCO[Si](CCCN)(OCC)OCC	1570 mg/kg
CCOC(=O)c1ccc(O)cc1	4300 mg/kg
CCC[Si](OC)(OC)OC	5170 mg/kg
ClC=C(Cl)Cl	4920 mg/kg
COc1ccc2c(c1)c(CC(=O)O)c(C)n2C(=O)c1ccc(Cl)cc1	2.42 mg/kg
CC(Oc1cc(Cl)c(Cl)cc1Cl)C(=O)O (configuration not stated)	650 mg/kg
OCCNc1ccccc1	2230 mg/kg
CCOCCOCCO	5570 mg/kg
C#C[C@]1(O)CC[C@H]2[C@@H]3CCc4cc(O)ccc4[C@H]3CC[C@@]21C	960 mg/kg
N#CC(Cl)Cl	330 mg/kg
O=C(O)CC(O)C(=O)O (configuration not stated)	9300 mg/kg and 3200 mg/kg
CN(C)CCCNCCCN	1540 mg/kg
CC(O)C(=O)O (configuration not stated)	3540 mg/kg

Structure (SMILES)	LD50
CC(C)CCCCCCCOP(OCCCCCCCC(C)C)OCCCCCCCC(C)C	12000 mg/kg
O=[N+]([O-])c1cccc(Cl)c1	300 mg/kg
Cc1ccc(C)c(OCCCC(C)(C)C(=O)O)c1	479 mg/kg
CC(C1CC1)C(O)(Cn1cncn1)c1ccc(Cl)cc1 (configuration not stated)	350 mg/kg
O=C=NC1CCCCC1	335 mg/kg
CC(C)(C)OOC(=O)c1ccccc1	1010 mg/kg
Clc1cc(Cl)c(Cl)nc1Cl	1000 mg/kg
CCCCCCCCCCCCCC[N+](C)(C)Cc1ccccc1	281 mg/kg
NS(=O)(=O)Cc1noc2ccccc12	1990 mg/kg
O=C1CCN(c2ccccc2)N1	200 mg/kg
Cc1ccc2nc3sc(=O)sc3nc2c1	1100 mg/kg
CCC(C)C=O (configuration not stated)	6400 mg/kg
O=c1ccc(=O)[nH][nH]1	3800 mg/kg
O=CCCCC=O	134 mg/kg
CCOC(=O)c1cn2nc(OP(=S)(OCC)OCC)cc2nc1C	151 mg/kg
C=COCCCC	10000 mg/kg
CC(C)(c1ccc(O)cc1)c1cccc(C(C)(C)c2ccc(O)cc2)c1	5460 mg/kg
CC(C)c1cccc(C(C)C)c1N	3200 mg/kg
CC(=O)N[C@@H](CS)C(=O)O	3000 mg/kg
CCCCCC(C)OC(=O)COc1ccc(Cl)c2cccnc12 (configuration not stated)	1100 mg/kg
CC(C)COC(=O)c1ccccc1C(=O)OCC(C)C	10400 mg/kg

Structure (SMILES)	LD50
COc1c(Cl)ccc(Cl)c1C(=O)O	757 mg/kg
COCC(=O)N(c1c(C)cccc1C)C(C)C(=O)OC (configuration not stated)	566 mg/kg
O=C1NS(=O)(=O)c2ccccc21	8820 mg/kg
CC(C)C(Nc1ccc(C(F)(F)F)cc1Cl)C(=O)OC(C#N)c1cccc(Oc2ccccc2)c1 (configuration not stated)	261 mg/kg
CC(C)C1OCC=CCO1	1000 mg/kg
COc1ccc(C(c2ccc(OC)cc2)C(Cl)(Cl)Cl)cc1	1860 mg/kg
CCOP(=O)(OCC)OC(=CCl)c1ccc(Cl)cc1Cl	9.66 mg/kg
CCCCCCCC(=O)OC	10100 mg/kg
CC(C)(C)N	44 mg/kg
O=C(O)/C=C/C(=O)O	9300 mg/kg
O=C(Nc1ccc(Cl)c(Cl)c1)Nc1cc(Cl)ccc1Oc1ccc(Cl)cc1S(=O)(=O)O	476 mg/kg
CCOP(=O)(SC(C)CC)SC(C)CC (configuration not stated)	37.1 mg/kg
Cl/C=C\CCl	81.5 mg/kg
O=C(O)COc1ccc(Cl)cc1Cl	625 mg/kg and 552 mg/kg and 370 mg/kg
CC1(C)[C@H](C(=O)O[C@H](C#N)c2cccc(Oc3ccccc3)c2)[C@@H]1C(Br)C(Br)(Br)Br (some centres not stated)	99 mg/kg
Clc1ccc(-c2ccc(Cl)c(Cl)c2Cl)c(Cl)c1Cl	1300 mg/kg
CI	76 mg/kg
C=CC(C)C#N (configuration not stated)	232 mg/kg
CCCSP(=O)(OCC)Oc1ccc(Br)cc1Cl (configuration not stated)	358 mg/kg
